Tests used:
[1] = in vivo, po; cited from earlier work
[2] = Solubility of oxymorphone in adhesive systems; type: physicochemical; details: in general
From the text: A variety of adhesive systems, enhancers and cosolvents were employed to observe permeation differences within these systems. In general, solubility in acrylic adhesives (i.e. Duro-Tak®) was higher, and thus the driving force out of the patch would be relatively lower. Solubility in silicone adhesives was lower and thus provided a much higher driving constant out of the formulation and into the skin; however, due to the relatively lower solubility, a solubility enhancer that also assisted in solubilising the skin was utilized.

SMILES	Bioavailability [1]	Solubility in silicone adhesives ([2]; compared with acrylic adhesives)	solubility in acrylic adhesives (i.e. Duro-Tak®) ([2]; compared with silicone adhesives)
COc1ccc2c3c1O[C@H]1C(=O)CC[C@H]4[C@@H](C2)N(C)CC[C@]314 [Hydrocodone]	80%		
COc1ccc2c3c1O[C@H]1C(=O)CC[C@@]4(O)[C@@H](C2)N(C)CC[C@]314 [Oxycodone]	87%		
CN1CC[C@]23c4c5ccc(O)c4O[C@H]2C(=O)CC[C@@]3(O)[C@H]1C5 [Oxymorphone]	10%	lower	higher

Reference: patent publication US10071090B2 (priority 2014, dated 2018)
